# According to PubChem BioAssay (NCI):
#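 All cell lines were grown in 96-well plates and treated with compound for 48 hours. The concentration for 50% growth inhibition is given as GI50. Definition used: TGI = concentration required for complete inhibition of growth.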
# Tests used:
# Experiment in all cases: NCI tumour cell line growth inhibition, 48 h
# CCRF-CEM leukemia = tested on: CCRF-CEM leukemia
# DU-145 prostate = tested on: DU-145 prostate
# EKVX NSCLC = tested on: EKVX NSCLC
# HL-60(TB) leukemia = tested on: HL-60(TB) leukemia
# HS 578T breast = tested on: HS 578T breast
# KM12 colon = tested on: KM12 colon
# NCI-H23 lung = tested on: NCI-H23 lung
# NCI-H460 lung = tested on: NCI-H460 lung
# NCI/ADR-RES ovarian = tested on: NCI/ADR-RES ovarian
# OVCAR-5 ovarian = tested on: OVCAR-5 ovarian
# RPMI-8226 leukemia = tested on: RPMI-8226 leukemia
# SF-268 CNS = tested on: SF-268 CNS
# SF-295 CNS = tested on: SF-295 CNS
# SK-MEL-28 melanoma = tested on: SK-MEL-28 melanoma
# SNB-19 CNS = tested on: SNB-19 CNS
# SNB-75 CNS = tested on: SNB-75 CNS
# SW-620 colon = tested on: SW-620 colon
# TK-10 renal = tested on: TK-10 renal
# U251 CNS = tested on: U251 CNS
SMILES,TGI (CCRF-CEM leukemia),TGI (DU-145 prostate),TGI (EKVX NSCLC),TGI (HL-60(TB) leukemia),TGI (HS 578T breast),TGI (KM12 colon),TGI (NCI-H23 lung),TGI (NCI-H460 lung),TGI (NCI/ADR-RES ovarian),TGI (OVCAR-5 ovarian),TGI (RPMI-8226 leukemia),TGI (SF-268 CNS),TGI (SF-295 CNS),TGI (SK-MEL-28 melanoma),TGI (SNB-19 CNS),TGI (SNB-75 CNS),TGI (SW-620 colon),TGI (TK-10 renal),TGI (U251 CNS),GI50 (KM12 colon)
N#Cc1c(-c2ccccc2)c(N=Nc2ccc(F)cc2)c(=O)n2c1[nH]c1ccccc12,7.57 µM,> 100 µM,41.3 µM,3.68 µM,31.4 µM,65 µM,> 75.7 µM,19.9 µM,20.6 µM,50.5 µM,12.9 µM,39.5 µM,24.8 µM,> 100 µM,33.5 µM,39.4 µM,> 100 µM,25.8 µM,18.1 µM,
Cc1cc2c(c(C=Nc3ccc([N+](=O)[O-])cc3)c1)OC1(C=C2)Oc2ccccc2C(=O)N1C (configuration not stated),39.8 µM,54.2 µM,43.6 µM,> 100 µM,> 100 µM,46.2 µM,35.7 µM,42.7 µM,49.1 µM,82.5 µM,93.1 µM,51.2 µM,77.1 µM,44.8 µM,> 100 µM,51.8 µM,81.1 µM,74.2 µM,42.8 µM,
C=CC1ON(C)CCc2cc(OC)c(OC)cc21 (configuration not stated),> 100 µM,> 100 µM,> 100 µM,> 100 µM,> 100 µM,> 100 µM,> 100 µM,> 100 µM,> 100 µM,> 100 µM,> 100 µM,> 100 µM,> 100 µM,> 100 µM,> 100 µM,> 100 µM,> 100 µM,> 100 µM,> 100 µM,
CC1(C)C=C(/C=N/Nc2ccc([N+](=O)[O-])cc2)C(C#N)=C(O)C1(C#N)C#N,> 100 µM,> 100 µM,> 100 µM,> 100 µM,> 100 µM,> 100 µM,> 100 µM,> 100 µM,> 100 µM,> 100 µM,> 100 µM,> 100 µM,> 100 µM,> 100 µM,> 100 µM,> 100 µM,> 100 µM,> 100 µM,> 100 µM,
CCOC(=O)C(Cc1c2ccccc2cc2ccccc12)(NC(C)=O)C(=O)OCC,> 100 µM,> 100 µM,> 100 µM,> 100 µM,> 100 µM,> 100 µM,> 100 µM,> 100 µM,> 100 µM,> 100 µM,> 100 µM,> 100 µM,> 100 µM,> 100 µM,> 100 µM,> 80.6 µM,> 100 µM,> 100 µM,> 100 µM,
CC1(C)CC[C@]2(C(=O)O)CC[C@]3(C)C(=CC[C@@H]4[C@@]5(C)C[C@H](O)[C@H](O)[C@@](C)(CO)C5=CC[C@]43C)[C@@H]2C1,> 100 µM,> 100 µM,> 100 µM,> 100 µM,> 100 µM,> 100 µM,> 100 µM,72.2 µM,> 100 µM,> 100 µM,> 100 µM,> 100 µM,> 100 µM,> 100 µM,> 100 µM,> 100 µM,> 100 µM,> 100 µM,> 100 µM,
C=C1C[C@@H](O)[C@@H](Br)C(C)(C)[C@]12CCC(C)(Cl)C(Br)C2 (some centres not stated),> 100 µM,> 100 µM,33.4 µM,80.8 µM,> 100 µM,3.8 µM,> 74.9 µM,> 84.5 µM,98 µM,19.8 µM,> 100 µM,> 77.4 µM,> 85.3 µM,> 100 µM,> 31.6 µM,> 71.5 µM,> 100 µM,> 100 µM,> 55.9 µM,0.793 µM
CCCCOC(=O)C1CN2C=CC=NC2=NC1(C(F)(F)F)C(F)(F)F (configuration not stated),> 100 µM,> 100 µM,> 100 µM,> 100 µM,> 100 µM,> 100 µM,> 100 µM,> 100 µM,> 100 µM,> 100 µM,> 100 µM,> 100 µM,> 100 µM,> 100 µM,> 100 µM,> 100 µM,> 100 µM,> 100 µM,> 100 µM,
O=c1c2cc([N+](=O)[O-])ccc2n(Cc2ccccc2)n1Cc1ccccc1,> 31.6 µM,> 31.6 µM,> 31.6 µM,22.7 µM,> 31.6 µM,22.2 µM,> 31.6 µM,26.9 µM,20.3 µM,> 31.6 µM,18.8 µM,> 31.6 µM,> 31.6 µM,> 31.6 µM,> 31.6 µM,> 31.6 µM,> 31.6 µM,> 31.6 µM,> 31.6 µM,
Cc1cccc(N=Nc2c(C)nn(C(=O)CC(=O)Nc3ccccc3)c2C)c1,> 100 µM,> 100 µM,> 100 µM,> 100 µM,> 100 µM,> 100 µM,> 100 µM,> 100 µM,> 100 µM,> 100 µM,> 100 µM,> 100 µM,> 100 µM,> 100 µM,> 100 µM,> 100 µM,> 100 µM,> 100 µM,> 100 µM,
CCOC(=O)c1sc2nc(SC)nc3c2c1N=CN3c1ccccc1Cl,> 100 µM,> 100 µM,> 100 µM,> 100 µM,52.3 µM,> 100 µM,> 100 µM,> 100 µM,> 100 µM,> 100 µM,> 100 µM,> 100 µM,> 100 µM,> 100 µM,> 100 µM,36.3 µM,> 100 µM,> 100 µM,> 100 µM,
NC1CC(=O)c2c(Cl)sc(Cl)c21 (configuration not stated),2.94 µM,16 µM,5.07 µM,6.09 µM,70.4 µM,12.8 µM,25 µM,33.7 µM,49.9 µM,42.9 µM,7.76 µM,67.4 µM,31.3 µM,4 µM,42.2 µM,26.1 µM,3.73 µM,6.26 µM,21.5 µM,
NS(=O)(=O)c1ccc(NNc2c3ccccc3nc3ccccc23)cc1,18.5 µM,23.6 µM,21.1 µM,19.9 µM,23.8 µM,16.5 µM,22.1 µM,21.3 µM,24.5 µM,17.5 µM,21.6 µM,17.7 µM,19.8 µM,17.1 µM,25.7 µM,21.9 µM,16.6 µM,26.4 µM,16.3 µM,
O=S(=O)(N=S(c1ccc(Cl)cc1)c1ccc(Cl)cc1)c1ccccc1,> 100 µM,> 100 µM,> 100 µM,> 100 µM,> 100 µM,> 100 µM,> 100 µM,> 100 µM,> 100 µM,> 100 µM,> 100 µM,> 100 µM,> 100 µM,> 100 µM,> 100 µM,> 100 µM,> 100 µM,> 100 µM,> 100 µM,
CC(=O)Nc1ccc(C(=O)NN2C(=O)C(Cl)C2c2cc(Br)ccc2O)cc1 (configuration not stated),> 100 µM,> 100 µM,> 100 µM,> 54.2 µM,> 100 µM,> 100 µM,> 100 µM,> 48.5 µM,> 100 µM,> 100 µM,> 100 µM,> 100 µM,> 100 µM,> 100 µM,> 100 µM,> 100 µM,> 100 µM,> 100 µM,> 100 µM,
C[C@]12CCC(=O)C=C1CC[C@@H]1[C@@H]2CC[C@]2(C)C(=O)[C@H](n3ccnc3)C[C@@H]12,> 100 µM,> 100 µM,> 100 µM,> 100 µM,> 100 µM,> 100 µM,> 100 µM,> 100 µM,> 100 µM,> 100 µM,> 100 µM,> 100 µM,> 100 µM,> 100 µM,> 100 µM,> 100 µM,> 100 µM,> 100 µM,> 100 µM,
O=C(c1cccc(OCc2ccccc2)c1OCc1ccccc1)N1CCSC1=S,24.4 µM,> 100 µM,> 100 µM,33.1 µM,> 45.8 µM,36.9 µM,74.9 µM,> 100 µM,> 100 µM,> 100 µM,43 µM,> 52.8 µM,> 100 µM,> 100 µM,> 100 µM,34.2 µM,> 100 µM,> 100 µM,> 100 µM,
COC(=O)C1Cc2cccc(C)c2C1 (configuration not stated),> 100 µM,> 100 µM,> 100 µM,> 100 µM,> 100 µM,> 100 µM,> 100 µM,> 100 µM,> 100 µM,> 100 µM,> 100 µM,> 100 µM,> 100 µM,> 100 µM,> 100 µM,> 100 µM,> 100 µM,> 100 µM,> 100 µM,
COC(=O)[C@@H]1C[C@H]([Se]c2ccccc2)CN1S(=O)(=O)c1ccc(C)cc1,> 100 µM,> 100 µM,> 100 µM,> 100 µM,> 100 µM,> 100 µM,> 100 µM,> 100 µM,> 100 µM,> 100 µM,> 100 µM,> 100 µM,> 100 µM,> 100 µM,> 100 µM,44.5 µM,> 100 µM,> 100 µM,> 100 µM,
Cc1ccc2c(c1)C(=O)C(Cc1ccccc1C(=O)O)C2 (configuration not stated),> 100 µM,> 100 µM,> 100 µM,> 100 µM,> 100 µM,> 100 µM,> 100 µM,> 100 µM,> 100 µM,> 100 µM,> 100 µM,> 100 µM,> 100 µM,> 100 µM,> 100 µM,> 100 µM,> 100 µM,> 100 µM,> 100 µM,
CCOC(=O)C(NC(=O)c1ccccc1)(Nc1ccc(S(=O)(=O)Nc2nc(C)cc(C)n2)cc1)C(F)(F)F (configuration not stated),> 100 µM,> 100 µM,> 100 µM,> 100 µM,> 100 µM,> 100 µM,> 100 µM,> 100 µM,> 100 µM,> 100 µM,> 100 µM,> 100 µM,> 100 µM,> 100 µM,> 100 µM,> 100 µM,> 100 µM,> 100 µM,> 100 µM,
O=c1[nH]c(-c2cccc(F)c2)nc2ccccc12,> 100 µM,> 100 µM,> 100 µM,> 100 µM,> 78.5 µM,> 100 µM,> 65.8 µM,> 100 µM,> 100 µM,> 100 µM,> 100 µM,> 100 µM,> 72.7 µM,> 100 µM,47.2 µM,62.7 µM,> 100 µM,58.9 µM,> 100 µM,
CCCCCC(O)[C@H]1C(=O)C[C@@H](O[Si](C)(C)C(C)(C)C)[C@@H]1/C=C/CCOCc1ccccc1 (some centres not stated),> 100 µM,46.4 µM,35.2 µM,> 100 µM,26.4 µM,17.2 µM,33.3 µM,30.5 µM,29.3 µM,36.6 µM,> 44.8 µM,33.2 µM,20.3 µM,31 µM,28.5 µM,32.1 µM,41.4 µM,28.5 µM,29.6 µM,
O=C1CCCC2=C(N1)C(=O)C=CC2=O,28.5 µM,31.2 µM,53 µM,73.5 µM,79.4 µM,36.7 µM,56.7 µM,63.8 µM,> 70.5 µM,48.6 µM,60.2 µM,67.9 µM,56.4 µM,60.4 µM,61 µM,60 µM,37.9 µM,56.9 µM,58.8 µM,
